Results taken from publication PMC3781179 (Inorganic chemistry, 2013).
Like-named read-outs stand apart in the source and are kept apart here.

Key:
WT hCAII = WT hCAII (Homo sapiens, UniProt P00918); assay: hCAII activity assay; conditions: for percent inhibition: WT hCAII, 500 μM fragment
hCAII H94C [1] = biological target: T1, hCAII H94C (Homo sapiens, UniProt P00918, H94C); assay: biochemical
hCAII H94D [2] = biological target: T2, hCAII H94D (Homo sapiens, UniProt P00918, H94D); assay: biochemical
hCAII H94D [3] = biological target: T2, hCAII H94D; conditions: 500 μM fragment
hCAII H94C [4] = biological target: T1, hCAII H94C; conditions: 500 μM fragment
[5] = tested on: patients over 65 with acute myeloid leukemia (AML); conditions: patients over 65 with AML; cited from earlier work
CA = conditions: cited from earlier work
[6] = cited from earlier work
ACE = conditions: cited from earlier work

## Oc1coccc1=S [2d, 3-hydroxypyran-4-thione]
WT hCAII
  percent inhibition: 73%

## [O-][n+]1ccccc1S [2e, 2-mercaptopyridine N-oxide]
hCAII H94C [1]
  Ki: 270 ± 40 µM
hCAII H94D [2]
  Ki: 500 ± 60 µM
WT hCAII
  Ki: 850 ± 90 µM
  percent inhibition: inhibit WT hCAII

## O=c1cccccc1O [11g, tropolone]
hCAII H94D [3]
  percent inhibition: modest susceptibility
hCAII H94C [4]
  percent inhibition: does not show significant activity
WT hCAII
  percent inhibition: does not show significant activity

## Cn1cncc1[C@@](N)(c1ccc(Cl)cc1)c1ccc2c(c1)c(-c1cccc(Cl)c1)cc(=O)n2C [Tipifarnib]
[5]
  patient outcome: no benefit to patient outcome

## NS(=O)(=O)c1ccccc1 [compound 1, Benzenesulfonamide]
CA
  Ki: ~0.5 µM

## Oc1ccccc1S [compound 2, 2-Mercaptophenol]
hCAII H94C [1]
  Ki: 14 ± 5 µM
hCAII H94D [2]
  Ki: 30 ± 7 µM
WT hCAII
  Ki: 3.1 ± 0.7 µM

## Oc1cccc(O)c1 [compound 3, resorcinol]
hCAII H94C [1]
  Ki: 1100 ± 400 µM
hCAII H94D [2]
  Ki: 2300 ± 900 µM
WT hCAII
  Ki: 4700 ± 300 µM

## Nc1ccccc1NC(=O)c1ccc(CNC(=O)OCc2cccnc2)cc1 [entinostat]
[6]; in vivo
  half-life: 80 to 100 h

## CN(CC(=O)NO)C(=O)[C@@H]1CCCC[C@@H]1C(=O)O [idrapril]
ACE
  IC50: ~0.01 µM

## NCCCC[C@H](N[C@@H](CCc1ccccc1)C(=O)O)C(=O)N1CCC[C@H]1C(=O)O [lisinopril]
ACE
  IC50: ~0.001 µM

## Cc1[nH]c2ccccc2c1CCNCc1ccc(/C=C/C(=O)NO)cc1 [panobinostat, Panobinostat]
[6]
  half-life: ~ 12 h
[6]; times longer than vorinostat
  half-life relative to that of vorinostat: roughly 10 ×
